Columns and labels:
Conditions in all cases: Compound concentration 1.0 uM
[1] = target: Rho-associated protein kinase 1 (Homo sapiens) (UniProt Q13464); test: activity of ROCK-I(h) at 1.0 µM in the Eurofins Kinase panel
[2] = target: Tyrosine-protein kinase Lck (Homo sapiens) (UniProt P06239); test: activity of Lck(h) at 1.0 µM in the Eurofins Kinase panel
[3] = target: High affinity nerve growth factor receptor (Homo sapiens) (UniProt P04629); test: activity of TrkA(h) at 1.0 µM in the Eurofins Kinase panel
[4] = target: Serine/threonine-protein kinase D3 (Homo sapiens) (UniProt O94806); test: activity of PKD3(h) at 1.0 µM in the Eurofins Kinase panel
[5] = target: CDK7/Cyclin H/MNAT1 (Homo sapiens) (UniProt P51946+P50613+P51948); test: activity of CDK7/cyclinH/MAT1(h) at 1.0 µM in the Eurofins Kinase panel; assay type: protein-complex assay
[6] = target: Serine/threonine-protein kinase A-Raf (Homo sapiens) (UniProt P10398); test: activity of A-Raf(h) at 1.0 µM in the Eurofins Kinase panel
[7] = target: Rhodopsin kinase GRK7 (Homo sapiens) (UniProt Q8WTQ7); test: activity of GRK7(h) at 1.0 µM in the Eurofins Kinase panel
[8] = target: Insulin receptor-related protein (Homo sapiens) (UniProt P14616); test: activity of IRR(h) at 1.0 µM in the Eurofins Kinase panel
[9] = target: Serine/threonine-protein kinase MRCK gamma (Homo sapiens) (UniProt Q6DT37); test: activity of MRCKgamma(h) at 1.0 µM in the Eurofins Kinase panel
[10] = target: STE20-like serine/threonine-protein kinase (Homo sapiens) (UniProt Q9H2G2); test: activity of SLK(h) at 1.0 µM in the Eurofins Kinase panel
[11] = target: Vascular endothelial growth factor receptor 3 (Homo sapiens) (UniProt P35916); test: activity of Flt4(h) at 1.0 µM in the Eurofins Kinase panel
[12] = target: Ephrin type-A receptor 8 (Homo sapiens) (UniProt P29322); test: activity of EphA8(h) at 1.0 µM in the Eurofins Kinase panel
[13] = target: Serine/threonine-protein kinase DCLK1 (Homo sapiens) (UniProt O15075); test: activity of DCAMKL1(h) at 1.0 µM in the Eurofins Kinase panel
[14] = target: Serine/threonine-protein kinase 33 (Homo sapiens) (UniProt Q9BYT3); test: activity of STK33(h) at 1.0 µM in the Eurofins Kinase panel
[15] = target: Calcium/calmodulin-dependent protein kinase kinase 2 (Homo sapiens) (UniProt Q96RR4); test: activity of CaMKK2(h) at 1.0 µM in the Eurofins Kinase panel
[16] = target: [Pyruvate dehydrogenase (acetyl-transferring)] kinase isozyme 4, mitochondrial (Homo sapiens) (UniProt Q16654); test: activity of PDHK4(h) at 1.0 µM in the Eurofins Kinase panel
[17] = target: Serine/threonine-protein kinase NLK (Homo sapiens) (UniProt Q9UBE8); test: activity of NLK(h) at 1.0 µM in the Eurofins Kinase panel
[18] = target: Serine/threonine-protein kinase PRP4 homolog (Homo sapiens) (UniProt Q13523); test: activity of PRP4(h) at 1.0 µM in the Eurofins Kinase panel
[19] = target: Phosphatidylinositol 5-phosphate 4-kinase type-2 alpha (Homo sapiens) (UniProt P48426); test: activity of PIP4K2alpha(h) at 1.0 µM in the Eurofins Kinase panel
[20] = target: CDK6/cyclin D3 (Homo sapiens) (UniProt P30281+Q00534); test: activity of CDK6/cyclinD3(h) at 1.0 µM in the Eurofins Kinase panel; assay type: protein-complex assay
[21] = target: Wee1-like protein kinase (Homo sapiens) (UniProt P30291); test: activity of Wee1(h) at 1.0 µM in the Eurofins Kinase panel
[22] = target: Macrophage-stimulating protein receptor (Homo sapiens) (UniProt Q04912); test: activity of Ron(h) at 1.0 µM in the Eurofins Kinase panel
[23] = target: Serine/threonine-protein kinase pim-1 (Homo sapiens) (UniProt P11309); test: activity of Pim-1(h) at 1.0 µM in the Eurofins Kinase panel
[24] = target: Death-associated protein kinase 3 (Homo sapiens) (UniProt O43293); test: activity of ZIPK(h) at 1.0 µM in the Eurofins Kinase panel
[25] = target: Tau-tubulin kinase 1 (Homo sapiens) (UniProt Q5TCY1); test: activity of TTBK1(h) at 1.0 µM in the Eurofins Kinase panel
[26] = target: Dual specificity tyrosine-phosphorylation-regulated kinase 3 (Homo sapiens) (UniProt O43781); test: activity of DYRK3(h) at 1.0 µM in the Eurofins Kinase panel
[27] = target: Proto-oncogene tyrosine-protein kinase ROS (Homo sapiens) (UniProt P08922); test: activity of Ros(h) at 1.0 µM in the Eurofins Kinase panel
[28] = target: Serine/threonine-protein kinase Sgk3 (Homo sapiens) (UniProt Q96BR1); test: activity of SGK3(h) at 1.0 µM in the Eurofins Kinase panel
[29] = target: Protein-tyrosine kinase 2-beta (Homo sapiens) (UniProt Q14289); test: activity of Pyk2(h) at 1.0 µM in the Eurofins Kinase panel
[30] = target: Tyrosine-protein kinase ZAP-70 (Homo sapiens) (UniProt P43403); test: activity of ZAP-70(h) at 1.0 µM in the Eurofins Kinase panel
[31] = target: cAMP-dependent protein kinase catalytic subunit beta (Homo sapiens) (UniProt P22694); test: activity of PKACbeta(h) at 1.0 µM in the Eurofins Kinase panel
[32] = target: Ephrin type-A receptor 3 (Homo sapiens) (UniProt P29320); test: activity of EphA3(h) at 1.0 µM in the Eurofins Kinase panel
[33] = target: Death-associated protein kinase 1 (Homo sapiens) (UniProt P53355); test: activity of DAPK1(h) at 1.0 µM in the Eurofins Kinase panel
[34] = target: Phosphatidylinositol 4-phosphate 3-kinase C2 domain-containing subunit alpha (Homo sapiens) (UniProt O00443); test: activity of PI3KC2alpha(h) at 1.0 µM in the Eurofins Kinase panel
[35] = target: Calcium/calmodulin-dependent protein kinase type 1 (Homo sapiens) (UniProt Q14012); test: activity of CaMKI(h) at 1.0 µM in the Eurofins Kinase panel
[36] = target: Phosphorylase b kinase gamma catalytic chain, testis/liver isoform (Homo sapiens) (UniProt P15735); test: activity of PhKgamma2(h) at 1.0 µM in the Eurofins Kinase panel
[37] = target: Mitogen-activated protein kinase 14 (Homo sapiens) (UniProt Q16539); test: activity of SAPK2a(h) at 1.0 µM in the Eurofins Kinase panel
[38] = target: Insulin-like growth factor 1 receptor (Homo sapiens) (UniProt P08069); test: activity of IGF-1R(h) at 1.0 µM in the Eurofins Kinase panel

Chain of Mitogen-activated protein kinase 14 (Homo sapiens) (Q16539 whole entry): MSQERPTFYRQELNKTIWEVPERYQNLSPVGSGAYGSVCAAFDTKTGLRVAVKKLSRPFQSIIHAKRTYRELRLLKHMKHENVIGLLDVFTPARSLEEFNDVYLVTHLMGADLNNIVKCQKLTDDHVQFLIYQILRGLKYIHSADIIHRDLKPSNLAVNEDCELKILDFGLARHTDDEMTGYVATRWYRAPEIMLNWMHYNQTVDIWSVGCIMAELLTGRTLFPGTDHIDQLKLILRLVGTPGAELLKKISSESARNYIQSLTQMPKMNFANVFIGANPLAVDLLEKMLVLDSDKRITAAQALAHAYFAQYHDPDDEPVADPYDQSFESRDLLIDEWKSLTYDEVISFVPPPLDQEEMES
Chain of Serine/threonine-protein kinase PRP4 homolog (Homo sapiens) (Q13523 whole entry): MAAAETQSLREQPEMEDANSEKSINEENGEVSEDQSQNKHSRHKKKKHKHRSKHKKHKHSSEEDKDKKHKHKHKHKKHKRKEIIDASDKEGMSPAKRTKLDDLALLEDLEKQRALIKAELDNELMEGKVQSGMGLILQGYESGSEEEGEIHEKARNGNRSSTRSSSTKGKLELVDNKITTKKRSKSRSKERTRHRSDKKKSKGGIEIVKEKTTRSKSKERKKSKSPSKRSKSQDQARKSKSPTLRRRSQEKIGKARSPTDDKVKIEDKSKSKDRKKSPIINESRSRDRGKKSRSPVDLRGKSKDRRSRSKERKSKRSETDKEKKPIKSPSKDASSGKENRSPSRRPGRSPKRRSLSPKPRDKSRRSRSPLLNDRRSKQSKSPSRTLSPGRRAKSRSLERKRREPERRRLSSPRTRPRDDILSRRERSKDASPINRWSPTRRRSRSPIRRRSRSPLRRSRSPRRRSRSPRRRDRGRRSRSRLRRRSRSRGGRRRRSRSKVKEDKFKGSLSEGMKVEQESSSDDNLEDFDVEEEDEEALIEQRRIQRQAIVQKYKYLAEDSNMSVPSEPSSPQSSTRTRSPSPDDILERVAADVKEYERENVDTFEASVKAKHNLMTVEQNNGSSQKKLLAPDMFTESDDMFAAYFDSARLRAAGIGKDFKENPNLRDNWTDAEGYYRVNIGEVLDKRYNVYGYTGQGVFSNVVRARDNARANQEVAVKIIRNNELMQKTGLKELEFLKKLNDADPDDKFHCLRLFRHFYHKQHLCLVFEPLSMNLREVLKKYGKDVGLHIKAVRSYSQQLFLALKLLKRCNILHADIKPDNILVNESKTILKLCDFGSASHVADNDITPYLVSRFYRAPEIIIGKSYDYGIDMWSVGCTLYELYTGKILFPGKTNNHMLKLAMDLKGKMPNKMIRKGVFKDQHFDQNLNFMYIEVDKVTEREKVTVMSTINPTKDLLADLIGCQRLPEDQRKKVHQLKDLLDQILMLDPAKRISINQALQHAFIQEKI
Chain of Wee1-like protein kinase (Homo sapiens) (P30291 whole entry, looked up): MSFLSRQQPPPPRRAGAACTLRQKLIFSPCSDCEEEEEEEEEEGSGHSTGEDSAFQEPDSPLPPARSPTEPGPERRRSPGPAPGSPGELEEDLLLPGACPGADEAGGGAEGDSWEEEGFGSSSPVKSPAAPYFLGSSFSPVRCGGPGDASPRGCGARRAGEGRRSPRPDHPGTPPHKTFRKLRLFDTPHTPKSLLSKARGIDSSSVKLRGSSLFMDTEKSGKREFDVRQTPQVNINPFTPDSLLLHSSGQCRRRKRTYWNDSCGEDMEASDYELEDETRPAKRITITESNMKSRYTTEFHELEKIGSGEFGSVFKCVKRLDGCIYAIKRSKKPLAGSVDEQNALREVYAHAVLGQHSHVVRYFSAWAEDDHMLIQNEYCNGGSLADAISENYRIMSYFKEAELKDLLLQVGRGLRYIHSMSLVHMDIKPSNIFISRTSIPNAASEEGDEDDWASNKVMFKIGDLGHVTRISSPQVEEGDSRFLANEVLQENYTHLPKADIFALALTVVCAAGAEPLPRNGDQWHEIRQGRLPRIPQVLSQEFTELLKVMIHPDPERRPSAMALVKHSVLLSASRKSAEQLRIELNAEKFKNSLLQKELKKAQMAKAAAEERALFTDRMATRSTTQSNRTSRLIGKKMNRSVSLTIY
Chain of Macrophage-stimulating protein receptor (Homo sapiens) (Q04912 25-304 limits assumed): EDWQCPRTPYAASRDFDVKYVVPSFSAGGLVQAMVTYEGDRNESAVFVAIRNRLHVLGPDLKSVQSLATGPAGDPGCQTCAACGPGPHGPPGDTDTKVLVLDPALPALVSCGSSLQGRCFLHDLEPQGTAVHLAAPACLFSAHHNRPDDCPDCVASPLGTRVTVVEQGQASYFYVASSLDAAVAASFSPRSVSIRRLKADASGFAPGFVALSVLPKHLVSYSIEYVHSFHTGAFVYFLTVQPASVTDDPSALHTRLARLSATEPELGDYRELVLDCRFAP
Chain of Macrophage-stimulating protein receptor (Homo sapiens) (Q04912 310-1400 limits assumed): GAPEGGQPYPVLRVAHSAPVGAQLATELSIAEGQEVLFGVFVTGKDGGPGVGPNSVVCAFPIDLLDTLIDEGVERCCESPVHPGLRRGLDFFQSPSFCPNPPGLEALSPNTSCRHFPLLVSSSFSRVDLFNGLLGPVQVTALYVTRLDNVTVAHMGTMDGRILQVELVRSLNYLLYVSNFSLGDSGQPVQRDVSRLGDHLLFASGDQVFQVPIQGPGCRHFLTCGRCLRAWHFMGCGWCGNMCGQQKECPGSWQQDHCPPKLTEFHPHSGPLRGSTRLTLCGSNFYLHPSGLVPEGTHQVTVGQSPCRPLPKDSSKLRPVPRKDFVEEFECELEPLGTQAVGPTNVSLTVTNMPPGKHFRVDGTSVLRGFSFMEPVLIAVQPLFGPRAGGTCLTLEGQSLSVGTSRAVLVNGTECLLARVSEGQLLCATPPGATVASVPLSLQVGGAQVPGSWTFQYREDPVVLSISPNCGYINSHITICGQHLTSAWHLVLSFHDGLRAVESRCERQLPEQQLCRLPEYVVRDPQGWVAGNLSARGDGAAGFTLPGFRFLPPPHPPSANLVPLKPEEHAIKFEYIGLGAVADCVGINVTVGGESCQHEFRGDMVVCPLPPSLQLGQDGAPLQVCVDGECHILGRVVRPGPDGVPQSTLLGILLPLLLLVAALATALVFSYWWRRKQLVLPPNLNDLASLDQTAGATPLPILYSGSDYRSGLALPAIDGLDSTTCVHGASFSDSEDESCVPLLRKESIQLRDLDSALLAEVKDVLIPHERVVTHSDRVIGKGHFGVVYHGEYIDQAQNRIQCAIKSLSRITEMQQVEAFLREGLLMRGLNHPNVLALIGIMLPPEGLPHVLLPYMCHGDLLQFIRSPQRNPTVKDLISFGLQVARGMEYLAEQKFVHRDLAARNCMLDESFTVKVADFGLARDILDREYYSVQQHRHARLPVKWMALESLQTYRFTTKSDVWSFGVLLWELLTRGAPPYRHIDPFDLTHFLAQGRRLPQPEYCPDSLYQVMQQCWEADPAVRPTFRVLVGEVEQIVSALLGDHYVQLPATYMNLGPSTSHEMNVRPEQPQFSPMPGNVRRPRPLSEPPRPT
Chain of Tau-tubulin kinase 1 (Homo sapiens) (Q5TCY1 whole entry): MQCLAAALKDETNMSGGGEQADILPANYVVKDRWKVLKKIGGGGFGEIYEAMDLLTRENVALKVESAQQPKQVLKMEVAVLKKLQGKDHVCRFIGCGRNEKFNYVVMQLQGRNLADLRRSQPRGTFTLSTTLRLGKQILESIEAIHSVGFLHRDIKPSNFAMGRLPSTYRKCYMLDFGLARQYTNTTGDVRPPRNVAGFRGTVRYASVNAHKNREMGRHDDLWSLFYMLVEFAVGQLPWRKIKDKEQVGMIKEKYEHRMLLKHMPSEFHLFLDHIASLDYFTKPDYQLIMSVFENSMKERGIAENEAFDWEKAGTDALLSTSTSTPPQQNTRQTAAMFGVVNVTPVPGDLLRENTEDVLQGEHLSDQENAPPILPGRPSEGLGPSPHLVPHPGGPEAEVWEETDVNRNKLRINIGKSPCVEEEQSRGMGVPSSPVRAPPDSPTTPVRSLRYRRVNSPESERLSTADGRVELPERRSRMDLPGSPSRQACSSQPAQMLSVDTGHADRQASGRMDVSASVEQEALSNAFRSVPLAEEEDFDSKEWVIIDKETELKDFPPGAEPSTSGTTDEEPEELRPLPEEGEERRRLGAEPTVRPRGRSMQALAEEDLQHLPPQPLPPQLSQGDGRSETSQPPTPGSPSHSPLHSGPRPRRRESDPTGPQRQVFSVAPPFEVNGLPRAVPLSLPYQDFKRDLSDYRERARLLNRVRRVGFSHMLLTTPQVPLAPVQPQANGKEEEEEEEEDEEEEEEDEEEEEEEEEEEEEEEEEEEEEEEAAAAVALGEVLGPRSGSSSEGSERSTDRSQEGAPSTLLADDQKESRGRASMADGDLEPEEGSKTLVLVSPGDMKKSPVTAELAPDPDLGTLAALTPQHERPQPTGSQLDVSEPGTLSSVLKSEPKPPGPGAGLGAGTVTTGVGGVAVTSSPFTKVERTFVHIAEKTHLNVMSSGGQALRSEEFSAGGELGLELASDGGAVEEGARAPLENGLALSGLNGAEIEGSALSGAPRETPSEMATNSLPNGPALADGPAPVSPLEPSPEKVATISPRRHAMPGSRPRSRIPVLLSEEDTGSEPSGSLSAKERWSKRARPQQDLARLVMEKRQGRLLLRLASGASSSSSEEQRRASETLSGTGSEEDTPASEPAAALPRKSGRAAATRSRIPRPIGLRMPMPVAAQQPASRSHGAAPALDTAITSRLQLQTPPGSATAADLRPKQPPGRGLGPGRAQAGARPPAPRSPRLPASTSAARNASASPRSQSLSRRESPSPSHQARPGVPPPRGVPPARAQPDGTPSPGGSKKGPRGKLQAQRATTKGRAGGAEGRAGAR
Chain of Serine/threonine-protein kinase pim-1 (Homo sapiens) (P11309 whole entry, looked up): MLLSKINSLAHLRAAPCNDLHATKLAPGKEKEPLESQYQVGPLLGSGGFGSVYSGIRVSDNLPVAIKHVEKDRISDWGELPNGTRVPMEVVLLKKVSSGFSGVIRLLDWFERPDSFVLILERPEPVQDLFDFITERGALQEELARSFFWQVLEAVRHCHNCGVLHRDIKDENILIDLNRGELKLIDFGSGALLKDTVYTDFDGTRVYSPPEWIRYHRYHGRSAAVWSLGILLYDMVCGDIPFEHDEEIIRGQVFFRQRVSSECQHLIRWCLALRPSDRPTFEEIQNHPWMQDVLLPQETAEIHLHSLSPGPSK

activity [1]: 96%
activity [2]: 86%
activity [3]: 105%
activity [4]: 97%
activity [5]: 95%
activity [6]: 97%
activity [7]: 98%
activity [8]: 110%
activity [9]: 98%
activity [10]: 109%
activity [11]: 96%
activity [12]: 115%
activity [13]: 95%
activity [14]: 98%
activity [15]: 96%
activity [16]: 101%
activity [17]: 98%
activity [18]: 100%
activity [19]: 100%
activity [20]: 90%
activity [21]: 94%
activity [22]: 111%
activity [23]: 95%
activity [25]: 96%
activity [26]: 99%
activity [27]: 97%
activity [28]: 102%
activity [29]: 76%
activity [30]: 71%
activity [31]: 121%
activity [32]: 79%
activity [34]: 102%
activity [35]: 104%
activity [36]: 98%
activity [37]: 94%
activity [38]: 98%
Compound: Cc1cc2c(-c3ccc(NC(=O)[C@H](N)CC(C)(C)C)cc3C)ccnc2[nH]1
activity [24]: 94%
activity [33]: 82%

Reference: ChEMBL document CHEMBL5723584 (2023)
